The record followed here is ChEMBL document CHEMBL6078682, “Circumventing Imatinib resistance in CML: Novel Telmisartan-based cell death modulators with improved activity and stability” (Eur J Med Chem, 2025).

Each structure is given as a SMILES string. Activity calls are given as the source filed them. No cut-off for these calls is given here.

A short description of data set [1]: Retention time of compound by HPLC analysis. It is filed as physicochemical.
Data set [2] can be described thus: Stability of compound in PBS buffer incubated for 8 to 24 hrs by HPLC analysis. Conditions: time 8-24 hrs. It is filed as physicochemical.
The target of data set [3] is T1, Liver carboxylesterase (Sus scrofa, UniProt Q29550).
T1 sequence (Q29550 whole entry): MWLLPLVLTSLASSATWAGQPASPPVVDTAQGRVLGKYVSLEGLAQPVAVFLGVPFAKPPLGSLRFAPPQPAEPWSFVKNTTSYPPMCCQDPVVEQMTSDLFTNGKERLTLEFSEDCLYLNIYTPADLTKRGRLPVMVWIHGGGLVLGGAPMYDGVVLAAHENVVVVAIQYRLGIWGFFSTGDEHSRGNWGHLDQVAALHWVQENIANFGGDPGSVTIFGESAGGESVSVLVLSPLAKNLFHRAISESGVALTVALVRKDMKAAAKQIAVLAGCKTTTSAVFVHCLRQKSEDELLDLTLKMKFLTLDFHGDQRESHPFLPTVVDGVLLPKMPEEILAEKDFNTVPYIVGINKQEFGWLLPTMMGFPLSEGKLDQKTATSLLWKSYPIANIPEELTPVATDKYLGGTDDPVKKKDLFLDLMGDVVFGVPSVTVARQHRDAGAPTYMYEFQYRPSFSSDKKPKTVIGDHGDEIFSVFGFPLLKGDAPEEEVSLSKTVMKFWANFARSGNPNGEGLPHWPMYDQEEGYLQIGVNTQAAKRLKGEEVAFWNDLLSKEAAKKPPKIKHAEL
Kind of data set: Stability of the compound assessed as porcine liver esterase-mediated hydrolysis at 800 uM measured after 180 mins by HPLC analysis. It is filed as ADME. The following applies: pig, isolated protein, 3 h.

The nature of data set [4]: Stability of the compound assessed as Pseudomonas aeruginosa Amidase-mediated hydrolysis at 800 uM measured after 6 hrs by HPLC analysis. The format is ADME. The following applies: isolated protein.
Data set [5] is described as follows: Stability in cell culture medium containing fetal bovine serum assessed as compound remaining at 200 uM at 37 degreeC measured after 72 hrs by RP-HPLC analysis. Conditions: cattle, read-out: Stability. It is filed as ADME, cell-free.
For data set [6], the system named is K562-IMA[r]. Kind of data set: Cytotoxicity against human Imatinib-resistant K562 cells assessed as effect on metabolic activity at 10 uM incubated for 72 hrs by MTT assay. It is filed as functional, cell-based.
The nature of data set [7]: Cytotoxicity against human HS5 cells assessed as effect on metabolic activity at 10 uM incubated for 72 hrs by MTT assay. The following applies: hs5, 72 h. It is filed as toxicity, cell-based.
Data set [8] deals with COS-7. Put plainly: Cytotoxicity against african green monkey COS-7 cells assessed as effect on metabolic activity at 10 uM incubated for 72 hrs by MTT assay. The format is toxicity, cell-based. The following applies: chlorocebus aethiops, cos-7, 72 h.
The subject of data set [9] is K562. Put plainly: Re-sensitization of human K562 cells to imatinib assessed as reduction in metabolic activity at 5 uM in presence of 1 uM imatinib by EZ4U assay. The format is functional, cell-based.
In data set [10] the test system is K562. Put plainly: Re-sensitization of human K562 cells to imatinib assessed as reduction in metabolic activity by measuring maximal sensitizing concentration in presence of imatinib by EZ4U assay. It is filed as functional, cell-based. Conditions: read-out: EC50.
Data set [11] is described as follows: Drug uptake in human Imatinib-resistant K562 cells assessed as increase in fluorescent intensity measured after 3 hrs by coomassie brilliant blue staining based analysis. The format is ADME, cell-based. The following applies: k562-ima[r].
Data set [12] in a line: Drug uptake in human Imatinib-resistant K562 cells assessed as increase in fluorescent intensity measured after 1 hr by coomassie brilliant blue staining based analysis. The following applies: k562-ima[r]. The format is ADME, cell-based.
A short description of data set [13]: Drug uptake in human Imatinib-resistant K562 cells assessed as increase in fluorescent intensity measured at 24 hrs by coomassie brilliant blue staining based analysis. It is filed as ADME, cell-based. Conditions: k562-ima[r].
The nature of data set [14]: Stability of the compound assessed as Pseudomonas aeruginosa Amidase-mediated hydrolysis at 800 uM measured after 24 hrs by HPLC analysis. The format is ADME. The following applies: isolated protein.
Data set [15] concerns amidase. Kind of data set: Stability of the compound assessed as Pseudomonas aeruginosa Amidase-mediated hydrolysis by measuring half life at 800 uM measured after 24 hrs by HPLC analysis. The format is ADME.
Data set [16] is described as follows: Drug uptake in human Imatinib-resistant K562 cells assessed as increase in fluorescent intensity measured after 1 to 24 hrs by coomassie brilliant blue staining based analysis. The format is ADME, cell-based. The following applies: k562-ima[r], time 1-24 hrs.
Data set [17] can be described thus: Drug uptake in human Imatinib-resistant K562 cells assessed as increase in fluorescent intensity measured after 24 hrs by coomassie brilliant blue staining based analysis. The following applies: k562-ima[r]. The format is ADME, cell-based.

On to `CCCc1nc2ccccc2n1Cc1ccc(-c2ccccc2C(=O)Nc2ccccc2)cc1`, for which the Retention_time in data set [1] came to 12 min. Also, the Stability entry in data set [2], in data set [3] and in data set [4] was “Stable” each time. Also, the remaining at 72 h, 200 µM in data set [5] is 98.4%. Further, the result in data set [6] was inactive. In addition, the Activity entry in data set [7] and in data set [8] was “Non-toxic” throughout. Besides, the result in data set [9] was Active. In addition, the maximal sensitizing concentration in data set [10] came out at 1.6 µM. In addition, the Drug uptake in [11] amounted to 2.7 nmol/mg; in data set [12], 1.9 nmol/mg; in data set [13], 14.5 nmol/mg.
In turn, `CCCc1nc2ccccc2n1Cc1ccc(-c2ccccc2C(=O)NC)cc1` returned a Retention_time in [1] of 9.9 min. Further, the Stability entry in [2], in data set [3] and in data set [14] was “Stable” in each case. For the same molecule, the half-life at 800 µM in data set [15] was 2020 min. Also, the remaining at 72 h, 200 µM in data set [5] was 93.4%. The result in [6] and in data set [9] was inactive. The Activity entry in [7] and in data set [8] was “Non-toxic” throughout. Also, in data set [10], the maximal sensitizing concentration was determined as 11.2 µM. In addition, the Drug uptake result in [16] and in data set [17] was “Not_active” each time.
